Tests used:
Assay type in all cases: cell-based
KMS-11 = assay: gIC50 in multiple myeloma cell line KMS-11 treated with EZH2 inhibitors; conditions: Homo sapiens, t(4;14)+
Protocol: (§1) All cells were grown in RPMI 1640 (Invitrogen) supplemented with 10% heat-inactivated FBS and 1% penicillin/streptomycin.
(§2) Cells were treated with the EZH2 inhibitors below. GSK2816126A is also known as GSK126 and is a compound of Formula I, specifically Compound B as described herein. Data in Table I was used to generate the data in FIG. 14. EZH2 inhibitors of Formula II, III, and IV and Compound C are used to generate gIC50 values and similar results as with GSK126 are found. Additional cell lines are tested with EZH2 inhibitors of Formula I, II, III, IV, Compound B, and Compound C and an improved cell killing, e.g. as measured by gIC50, is seen in cell lines having an increased level of MMSET expression, or a decreased level of UTX enzyme, or both, as compared to a control, e.g. a tissue typed control sample not characterized as having cancerous attributes.

KMS-12-BM = assay: gIC50 in multiple myeloma cell line KMS-12-BM treated with EZH2 inhibitors; conditions: Homo sapiens, MMSET none, UTX Hom del exons 5-12
Protocol: as §1, §2

LP1 = assay: gIC50 in multiple myeloma cell line LP1 treated with EZH2 inhibitors; conditions: Homo sapiens, LP-1, t(4;14)+, UTX Hom 1621C>T (Q541X)
Protocol: as §1, §2

OpM2 = assay: gIC50 in multiple myeloma cell line OpM2 treated with EZH2 inhibitors; conditions: Homo sapiens, OPM-2, t(4;14)+, UTX Het c.197G>A p.G66D
Protocol: as §1, §2

RPMI-8226 = assay: gIC50 in multiple myeloma cell line RPMI-8226 treated with EZH2 inhibitors; conditions: Homo sapiens, MMSET none, UTX wt
Protocol: as §1, §2

CC[C@H](C)n1cc(C)c2c(C(=O)NCc3c(C)cc(C)[nH]c3=O)cc(-c3ccc(N4CCNCC4)nc3)cc21 [GSK2816126A]
IC50 (KMS-11): 3020 nM | IC50 (KMS-12-BM): 2570 nM | IC50 (LP1): 2380 nM | IC50 (OpM2): 861 nM | IC50 (RPMI-8226): 1680 nM

Source: patent US20170105997A1, “METHODS OF TREATING CANCER” (Northwestern University, priority 2014, published 2017)
